For 19 molecules, IC50 results are on record in patent US9751887B2, “Imidazo[1,2-b]pyridazine derivatives as kinase inhibitors” (Daiichi Sankyo Company, Limited, priority 2012, dated 2017).

Usually IC50 stands for the midpoint of a concentration-inhibition curve.

One experiment concerns the target T1, NTRK1 (Homo sapiens, UniProt P04629).
T1 construct: purchased Carna Biosciences 08-186
In words: NTRK kinase enzyme inhibitory activity evaluation, NTRK1. The class given is biochemical. As to conditions: FL-Peptide 27 substrate, ATP Km=33 μM, three separate measurements. How it is done: (§1) NTRK1, NTRK2, and NTRK3 kinase solutions were each prepared. […]; Next, a substrate reaction solution was prepared.
(§2) Subsequently, a reaction stop solution was prepared. The composition is as follows: 100 mM HEPES (pH 7.4), 0.015% Brij-35, 40 mM EDTA, and 0.1% Coating Reagent 3 (Caliper Life Sciences #760050).
(§3) The NTRK1, NTRK2, and NTRK3 kinase solutions were each added at a concentration of 19 μL/well to a 96-well plate. Each compound for evaluation dissolved in DMSO to achieve each final concentration was added to the plate, mixed using a plate mixer, and then preincubated at room temperature for 20 minutes. […] Then, the reaction stop solution was added thereto at a concentration of 40 μL/well. Substrate phosphorylation intensity was measured using EZ Reader II (Caliper Life Sciences). IC50 values were calculated by curve fitting using Microsoft Excel 2010 on the basis of data obtained from three separate measurements.

Experiment [1] concerns HCC78 cells having ROS1 fusion gene. In words: HCC78 cell growth assay (CellTiter-Glo). It counts as cell-based. The following applies: Homo sapiens, HCC78, 72 h, 72 hours culture, 2% FBS medium, luminescence, four separate measurements; read-out: growth inhibitory effect on HCC78 cells having ROS1 fusion gene IC50. A general note: Cellular ATP, detected with luciferase, serves as a proxy for viable cell number.

The target in the next experiment is T2, NTRK2 (Homo sapiens, UniProt Q16620).
T2 construct: purchased Carna Biosciences 08-187
T2 sequence (Q16620 32-822): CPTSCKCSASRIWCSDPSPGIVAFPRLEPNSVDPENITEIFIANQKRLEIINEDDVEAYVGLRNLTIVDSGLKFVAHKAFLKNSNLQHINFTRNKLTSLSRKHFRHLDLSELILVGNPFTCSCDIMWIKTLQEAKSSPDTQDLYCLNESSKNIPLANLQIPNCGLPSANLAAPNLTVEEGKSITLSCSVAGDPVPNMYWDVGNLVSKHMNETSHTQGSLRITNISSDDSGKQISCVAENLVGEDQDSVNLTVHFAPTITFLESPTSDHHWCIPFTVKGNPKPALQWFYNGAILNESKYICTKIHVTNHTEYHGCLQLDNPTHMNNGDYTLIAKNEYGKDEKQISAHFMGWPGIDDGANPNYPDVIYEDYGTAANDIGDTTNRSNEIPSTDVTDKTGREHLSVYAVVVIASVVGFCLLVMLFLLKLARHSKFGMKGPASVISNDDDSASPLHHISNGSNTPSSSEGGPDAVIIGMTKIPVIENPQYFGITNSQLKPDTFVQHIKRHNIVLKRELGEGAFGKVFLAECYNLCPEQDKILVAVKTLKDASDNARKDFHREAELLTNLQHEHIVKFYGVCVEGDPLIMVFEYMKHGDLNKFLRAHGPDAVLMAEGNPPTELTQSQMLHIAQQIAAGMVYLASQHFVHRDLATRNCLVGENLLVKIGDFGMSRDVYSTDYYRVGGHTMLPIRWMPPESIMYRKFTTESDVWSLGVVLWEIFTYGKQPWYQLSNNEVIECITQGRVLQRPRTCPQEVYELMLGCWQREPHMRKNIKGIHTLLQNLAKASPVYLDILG
In words: NTRK kinase enzyme inhibitory activity evaluation, NTRK2. It counts as biochemical. As to conditions: FL-Peptide 27 substrate, ATP Km=63 μM, three separate measurements. How it is done: as §1, §2, §3

The target of the next experiment is T3, NTRK3 (Homo sapiens, UniProt Q16288).
T3 construct: purchased Carna Biosciences 08-197
T3 sequence (Q16288 32-839): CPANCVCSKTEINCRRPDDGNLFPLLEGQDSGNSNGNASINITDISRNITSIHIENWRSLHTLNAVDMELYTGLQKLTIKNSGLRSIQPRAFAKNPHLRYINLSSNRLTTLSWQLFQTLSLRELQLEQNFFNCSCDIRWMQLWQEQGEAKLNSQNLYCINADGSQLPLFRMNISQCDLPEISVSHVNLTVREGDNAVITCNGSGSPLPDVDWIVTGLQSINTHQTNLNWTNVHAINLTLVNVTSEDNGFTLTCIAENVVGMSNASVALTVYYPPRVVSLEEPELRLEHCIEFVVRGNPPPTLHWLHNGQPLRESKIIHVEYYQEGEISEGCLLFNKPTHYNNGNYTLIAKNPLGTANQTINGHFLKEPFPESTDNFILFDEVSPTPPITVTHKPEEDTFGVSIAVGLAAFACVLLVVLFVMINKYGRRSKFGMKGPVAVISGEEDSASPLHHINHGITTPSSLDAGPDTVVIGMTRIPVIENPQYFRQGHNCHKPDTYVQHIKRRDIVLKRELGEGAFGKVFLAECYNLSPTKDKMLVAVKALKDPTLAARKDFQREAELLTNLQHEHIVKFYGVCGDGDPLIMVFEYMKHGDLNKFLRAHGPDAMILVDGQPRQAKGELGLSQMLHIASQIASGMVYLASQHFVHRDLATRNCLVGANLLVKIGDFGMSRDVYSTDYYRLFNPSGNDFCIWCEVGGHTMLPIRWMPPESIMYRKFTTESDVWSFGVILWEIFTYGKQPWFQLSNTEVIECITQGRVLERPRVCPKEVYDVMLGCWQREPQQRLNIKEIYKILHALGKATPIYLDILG
Nature of the experiment: NTRK kinase enzyme inhibitory activity evaluation, NTRK3. It counts as biochemical. The following applies: FL-Peptide 27 substrate, ATP Km=32 μM, three separate measurements. How it is done:
as §1, §2, §3

Experiment [2] addresses T4, ROS1 (Homo sapiens, UniProt P08922).
T4 construct: purchased Carna Biosciences 08-163
Nature of the experiment: ROS1 autophosphorylation inhibitory activity evaluation (ADP-Glo). The following applies: 200 nM inactive ROS1, ATP 1 mM, 25° C. 1.5 hours, ADP generated, four separate measurements. The class given is biochemical. The essentials:
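IC50 was derived by curve fitting of ADP output measured with ADP-Glo reagents. The output reflects ROS1 self-phosphorylation over 1.5 hours at 25° C. Buffer was HEPES pH 7.5 with MgCl2, Brij-58 and DTT, and ATP was 1 mM final.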
A general note: ADP-Glo turns the ADP formed in a reaction into a luminescent signal.

Experiment [3] addresses T4, ROS1. Nature of the experiment: ROS1 kinase inhibitory activity evaluation (mobility shift, EZ Reader II). The class given is biochemical. The following applies: ROS1 25 pg/μL, FL-Peptide 22 substrate, three separate measurements. How it is done: Next, a substrate reaction solution was prepared. […] Then, the reaction stop solution was added thereto at a concentration of 40 μL/well. Substrate phosphorylation intensity was measured using EZ Reader II (Caliper Life Sciences).

T1 sequence (P04629 33-796): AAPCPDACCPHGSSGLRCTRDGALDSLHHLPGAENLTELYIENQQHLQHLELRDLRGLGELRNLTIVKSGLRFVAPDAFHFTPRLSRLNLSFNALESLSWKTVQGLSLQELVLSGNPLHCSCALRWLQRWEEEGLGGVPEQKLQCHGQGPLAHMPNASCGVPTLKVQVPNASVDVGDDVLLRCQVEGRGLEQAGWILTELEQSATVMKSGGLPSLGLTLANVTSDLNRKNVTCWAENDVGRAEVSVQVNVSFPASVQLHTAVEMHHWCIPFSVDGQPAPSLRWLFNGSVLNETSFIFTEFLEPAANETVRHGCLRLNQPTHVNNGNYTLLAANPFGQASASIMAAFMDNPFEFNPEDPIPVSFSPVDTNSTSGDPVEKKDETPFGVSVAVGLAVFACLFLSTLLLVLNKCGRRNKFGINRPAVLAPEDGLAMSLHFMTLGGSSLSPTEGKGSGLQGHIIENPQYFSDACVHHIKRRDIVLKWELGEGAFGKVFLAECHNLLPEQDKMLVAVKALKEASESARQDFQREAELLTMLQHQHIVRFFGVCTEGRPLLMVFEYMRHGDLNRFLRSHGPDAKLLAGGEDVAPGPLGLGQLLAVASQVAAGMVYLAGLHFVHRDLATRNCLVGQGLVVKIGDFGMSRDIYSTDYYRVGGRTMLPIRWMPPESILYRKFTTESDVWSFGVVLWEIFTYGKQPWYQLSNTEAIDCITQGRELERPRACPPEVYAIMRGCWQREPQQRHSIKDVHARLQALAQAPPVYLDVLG
T4 sequence (P08922 28-2347): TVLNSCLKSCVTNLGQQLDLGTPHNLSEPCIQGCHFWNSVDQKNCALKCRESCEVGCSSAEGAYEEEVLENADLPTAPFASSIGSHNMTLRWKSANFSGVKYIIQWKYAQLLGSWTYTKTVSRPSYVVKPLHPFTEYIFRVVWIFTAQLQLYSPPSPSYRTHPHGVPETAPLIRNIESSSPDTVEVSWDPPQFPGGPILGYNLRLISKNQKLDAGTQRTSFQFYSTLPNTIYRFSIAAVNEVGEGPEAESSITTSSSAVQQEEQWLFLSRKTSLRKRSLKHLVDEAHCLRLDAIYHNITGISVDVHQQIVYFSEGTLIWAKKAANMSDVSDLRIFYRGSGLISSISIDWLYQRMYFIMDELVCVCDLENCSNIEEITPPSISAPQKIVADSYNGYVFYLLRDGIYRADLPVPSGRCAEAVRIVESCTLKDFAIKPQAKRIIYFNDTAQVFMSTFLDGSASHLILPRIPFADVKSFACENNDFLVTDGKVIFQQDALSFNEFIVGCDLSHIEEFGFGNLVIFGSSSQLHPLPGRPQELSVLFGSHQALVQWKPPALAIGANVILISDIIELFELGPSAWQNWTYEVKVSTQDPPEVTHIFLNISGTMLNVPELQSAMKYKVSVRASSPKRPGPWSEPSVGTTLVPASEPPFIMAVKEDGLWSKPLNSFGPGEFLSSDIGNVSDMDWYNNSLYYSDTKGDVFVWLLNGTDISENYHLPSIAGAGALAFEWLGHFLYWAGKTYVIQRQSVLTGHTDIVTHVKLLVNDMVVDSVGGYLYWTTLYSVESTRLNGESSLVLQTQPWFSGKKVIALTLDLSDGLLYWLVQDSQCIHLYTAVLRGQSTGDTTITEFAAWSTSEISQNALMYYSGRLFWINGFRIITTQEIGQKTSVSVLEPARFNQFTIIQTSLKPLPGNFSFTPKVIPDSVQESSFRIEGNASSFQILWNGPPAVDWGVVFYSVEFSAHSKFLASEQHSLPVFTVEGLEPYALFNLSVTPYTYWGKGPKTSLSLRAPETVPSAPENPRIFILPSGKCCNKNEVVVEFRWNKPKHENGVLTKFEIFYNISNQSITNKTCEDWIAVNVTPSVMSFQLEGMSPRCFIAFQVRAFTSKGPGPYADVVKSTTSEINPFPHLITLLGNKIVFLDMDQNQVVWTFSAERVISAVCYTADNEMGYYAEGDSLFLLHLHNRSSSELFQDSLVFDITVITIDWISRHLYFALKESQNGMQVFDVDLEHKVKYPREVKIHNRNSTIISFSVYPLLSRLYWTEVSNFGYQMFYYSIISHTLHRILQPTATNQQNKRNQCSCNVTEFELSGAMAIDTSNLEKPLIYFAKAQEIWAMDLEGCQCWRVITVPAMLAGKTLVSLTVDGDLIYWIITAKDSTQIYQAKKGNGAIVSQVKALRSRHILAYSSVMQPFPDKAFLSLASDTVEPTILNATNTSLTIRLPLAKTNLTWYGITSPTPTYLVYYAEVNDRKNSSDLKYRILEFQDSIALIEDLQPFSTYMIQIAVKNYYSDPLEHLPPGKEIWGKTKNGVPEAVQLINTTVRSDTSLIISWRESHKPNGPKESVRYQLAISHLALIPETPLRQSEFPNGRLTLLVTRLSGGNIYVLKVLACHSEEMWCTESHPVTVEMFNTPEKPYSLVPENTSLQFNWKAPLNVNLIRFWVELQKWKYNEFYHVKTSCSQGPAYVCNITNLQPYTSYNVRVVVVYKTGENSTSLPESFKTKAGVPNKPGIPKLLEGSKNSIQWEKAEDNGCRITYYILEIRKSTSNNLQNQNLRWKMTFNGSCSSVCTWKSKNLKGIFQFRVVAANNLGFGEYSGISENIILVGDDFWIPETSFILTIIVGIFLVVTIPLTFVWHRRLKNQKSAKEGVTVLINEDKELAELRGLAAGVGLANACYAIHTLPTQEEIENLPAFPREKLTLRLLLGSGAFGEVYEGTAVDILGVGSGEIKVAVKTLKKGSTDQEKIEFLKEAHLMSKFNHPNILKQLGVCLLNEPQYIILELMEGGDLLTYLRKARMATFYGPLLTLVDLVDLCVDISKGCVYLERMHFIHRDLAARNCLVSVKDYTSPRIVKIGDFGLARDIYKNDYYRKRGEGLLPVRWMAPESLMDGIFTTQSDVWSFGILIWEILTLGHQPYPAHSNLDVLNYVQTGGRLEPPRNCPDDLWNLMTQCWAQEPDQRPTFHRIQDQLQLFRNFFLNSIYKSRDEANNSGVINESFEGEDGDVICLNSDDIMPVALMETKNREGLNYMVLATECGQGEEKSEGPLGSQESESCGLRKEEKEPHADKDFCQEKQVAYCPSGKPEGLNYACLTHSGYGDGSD

On to `C[C@@H](N)COc1ccc(-c2cnc3ccc(N[C@H](C)c4cccc(F)c4)nn23)cc1` [Example 21, 3-[4-[(2R)-2-Aminopropoxy]phenyl]-N-[(1R)-1-(3-fluorophenyl)ethyl]imidazo[1,2-b]pyridazin-6-amine], for which the half-inhibitory concentration (IC50) was under 0.005 µM at NTRK1, under 0.02 µM in experiment [1], under 0.01 µM on NTRK2 and under 0.005 µM against NTRK3.
On to `C[C@@H](Nc1ccc2ncc(-c3ccc(OC[C@@H]4CCCN4)cc3)n2n1)c1cccc(F)c1` [Example 24, N-[(1R)-1-(3-Fluorophenyl)ethyl]-3-[4-[[(2S)-pyrrolidin-2-yl]methoxy]phenyl]imidazo[1,2-b]pyridazin-6-amine], for which the 50% inhibitory concentration (IC50) was under 0.005 µM against NTRK1; 0.02 to 0.1 µM in experiment [1]; under 0.02 µM against ROS1 [2]; under 0.01 µM at NTRK2; under 0.001 µM on ROS1 [3]; under 0.005 µM at NTRK3.
For `CNCCOc1ccc(-c2cnc3ccc(N[C@H](C)c4cccc(F)c4)nn23)cc1` [Example 29, N-[(1R)-1-(3-Fluorophenyl)ethyl]-3-[4-[2-(methylamino)ethoxy]phenyl]imidazo[1,2-b]pyridazin-6-amine], the IC50 is under 0.005 µM at NTRK1; under 0.02 µM in experiment [1]; under 0.02 µM against ROS1 [2]; under 0.01 µM on NTRK2; under 0.001 µM on ROS1 [3]; under 0.005 µM against NTRK3.
In the case of `C[C@@H](Nc1ccc2ncc(-c3ccc(OC[C@@H]4CCN4)cc3)n2n1)c1cccc(F)c1` [Example 30, 3-[4-[[(2S)-Azetidin-2-yl]methoxy]phenyl]-N-[(1R)-1-(3-fluorophenyl)ethyl]imidazo[1,2-b]pyridazin-6-amine], the IC50 is under 0.005 µM on NTRK1; under 0.02 µM in experiment [1]; under 0.02 µM against ROS1 [2]; under 0.01 µM on NTRK2; under 0.001 µM on ROS1 [3]; under 0.005 µM on NTRK3.
As to `C[C@H](N)COc1ccc(-c2cnc3ccc(N[C@H](C)c4cccc(F)c4)nn23)cc1` [Example 41, 3-[4-[(2S)-2-Aminopropoxy]phenyl]-N-[(1R)-1-(3-fluorophenyl)ethyl]imidazo[1,2-b]pyridazin-6-amine], the half-inhibitory concentration (IC50) against NTRK1 is under 0.005 µM; in experiment [1], under 0.02 µM; against NTRK2 it was under 0.01 µM; at NTRK3 it was under 0.005 µM.
For the molecule `C[C@@H](Oc1ccc2ncc(-c3ccc(N4C[C@@H](N)CC4=O)cc3)n2n1)c1cccc(F)c1` [Example 79, (4S)-4-Amino-1-[4-[6-[(1R)-1-(3-fluorophenyl)ethoxy]imidazo[1,2-b]pyridazin-3-yl]phenyl]pyrrolidin-2-one], the IC50 against NTRK1 is under 0.005 µM; in experiment [1], under 0.02 µM; against NTRK2, under 0.01 µM; at ROS1 [3], under 0.001 µM; at NTRK3 it was under 0.005 µM.
With `CN(Cc1cccc(F)c1)c1ccc2ncc(-c3ccc(N4C[C@@H](N)CC4=O)cc3)n2n1` [Example 81, (4S)-4-Amino-1-[4-[6-[(3-fluorophenyl)methyl-methylamino]imidazo[1,2-b]pyridazin-3-yl]phenyl]pyrrolidin-2-one], the 50% inhibitory concentration (IC50) is under 0.005 µM at NTRK1; under 0.02 µM in experiment [1]; under 0.02 µM on ROS1 [2]; under 0.01 µM against NTRK2; under 0.001 µM at ROS1 [3]; under 0.005 µM against NTRK3.
Take `COc1cc(N2C[C@@H](N)CC2=O)ccc1-c1cnc2ccc(N(C)Cc3cccc(F)c3)nn12` [Example 85, (4S)-4-Amino-1-[4-[6-[(3-fluorophenyl)methyl-methylamino]imidazo[1,2-b]pyridazin-3-yl]-3-methoxyphenyl]pyrrolidin-2-one]: the IC50 on NTRK1 is under 0.005 µM; in experiment [1], 0.02 to 0.1 µM; on ROS1 [2], under 0.02 µM; against NTRK2, under 0.01 µM; on ROS1 [3] it was 0.001 to 0.01 µM; on NTRK3 it was under 0.005 µM.
Take `C[C@@H](Nc1ccc2ncc(-c3ccc(N4C[C@@H](N)CC4=O)cc3)n2n1)c1cccc(F)c1` [Example 90, (4S)-4-Amino-1-[4-[6-[[(1R)-1-(3-fluorophenyl)ethyl]amino]imidazo[1,2-b]pyridazin-3-yl]phenyl]pyrrolidin-2-one]: the half-maximal inhibitory concentration (IC50) against NTRK1 is under 0.005 µM; in experiment [1] it was under 0.02 µM; on ROS1 [2], under 0.02 µM; at NTRK2, under 0.01 µM; at ROS1 [3] it was under 0.001 µM; against NTRK3, under 0.005 µM.
As for `CN(Cc1cncc(Cl)c1)c1ccc2ncc(-c3ccc(N4C[C@@H](N)CC4=O)cc3)n2n1` [Example 122, (4S)-4-Amino-1-[4-[6-[(5-chloro-3-pyridyl)methyl-methylamino]imidazo[1,2-b]pyridazin-3-yl]phenyl]pyrrolidin-2-one], the 50% inhibitory concentration (IC50) in experiment [1] fell in the range of 0.02 to 0.1 µM; at ROS1 [2], 0.02 to 0.1 µM; at ROS1 [3], 0.001 to 0.01 µM.
Turning to `CN(Cc1cncc(Cl)c1)c1ccc2ncc(-c3ccc(N4CC(C)(N)CC4=O)cc3)n2n1` (stereo not shown) [Example 123, 4-Amino-1-[4-[6-[(5-chloro-3-pyridyl)methyl-methylamino]imidazo[1,2-b]pyridazin-3-yl]phenyl]-4-methylpyrrolidin-2-one], the results for the IC50 (in experiment [1]; on ROS1 [2]; at ROS1 [3]) were 0.02 to 0.1 µM, 0.1 to 0.15 µM and 0.01 to 0.06 µM, respectively.
As for `CN(Cc1cncc(F)c1Cl)c1ccc2ncc(-c3ccc(N4C[C@@H](N)CC4=O)cc3)n2n1` [Example 126, (4S)-4-Amino-1-[4-[6-[(4-chloro-5-fluoro-3-pyridyl)methyl-methylamino]imidazo[1,2-b]pyridazin-3-yl]phenyl]pyrrolidin-2-one], the figures for the half-maximal inhibitory concentration (IC50) (in experiment [1]; against ROS1 [2]; at ROS1 [3]) were 0.02 to 0.1 µM, 0.02 to 0.1 µM and 0.001 to 0.01 µM, respectively.
For `C[C@@H](Oc1ccc2ncc(-c3ccc(N4C[C@@H](N)CC4=O)nc3)n2n1)c1cccc(F)c1` [Example 127, (4S)-4-Amino-1-[5-[6-[(1R)-1-(3-fluorophenyl)ethoxy]imidazo[1,2-b]pyridazin-3-yl]-2-pyridyl]pyrrolidin-2-one], the concentration for half-maximal inhibition (IC50) against NTRK1 is 0.01 to 0.015 µM; in experiment [1] it was 0.02 to 0.1 µM; against ROS1 [2], under 0.02 µM; on NTRK2, 0.02 to 0.025 µM; on ROS1 [3] it was under 0.001 µM; on NTRK3, 0.005 to 0.01 µM.
Consider `CN(Cc1cccc(F)c1)c1ccc2ncc(-c3ccc(N4C[C@@H](N)CC4=O)nc3)n2n1` [Example 128, (4S)-4-Amino-1-[5-[6-[(3-fluorophenyl)methyl-methylamino]imidazo[1,2-b]pyridazin-3-yl]-2-pyridyl]pyrrolidin-2-one], for which the concentration for half-maximal inhibition (IC50) is 0.02 to 0.1 µM in experiment [1], under 0.02 µM against ROS1 [2] and under 0.001 µM on ROS1 [3].
The like results for `CN(Cc1cc(F)ccc1F)c1ccc2ncc(-c3ccc(N4C[C@@H](N)CC4=O)nc3)n2n1` [Example 129, (4S)-4-Amino-1-[5-[6-[(2,5-difluorophenyl)methyl-methylamino]imidazo[1,2-b]pyridazin-3-yl]-2-pyridyl]pyrrolidin-2-one] were, in that order, 0.02 to 0.1 µM, 0.02 to 0.1 µM and 0.001 to 0.01 µM.
The like results for `CN(Cc1cncc(F)c1)c1ccc2ncc(-c3ccc(N4C[C@@H](N)CC4=O)c(C#N)c3)n2n1` [Example 130] were, in that order, 0.1 to 0.6 µM, 0.02 to 0.1 µM and 0.01 to 0.06 µM.
As to `CN(Cc1cccc(F)c1)c1ccc2ncc(-c3ccc(N4C[C@@H](N)CC4=O)c(C#N)c3)n2n1` [Example 131, 2-[(4S)-4-Amino-2-oxopyrrolidin-1-yl]-5-[6-[(3-fluorophenyl)methyl-methylamino]imidazo[1,2-b]pyridazin-3-yl]benzonitrile], the figures for the IC50 (in experiment [1]; against ROS1 [2]; on ROS1 [3]) were 0.02 to 0.1 µM, under 0.02 µM and 0.001 to 0.01 µM, respectively.
Taken in the same sequence, the figures for `CN(Cc1cccc(F)c1F)c1ccc2ncc(-c3ccc(N4C[C@@H](N)CC4=O)nc3)n2n1` [Example 132, (4S)-4-Amino-1-[5-[6-[(2,3-difluorophenyl)methyl-methylamino]imidazo[1,2-b]pyridazin-3-yl]-2-pyridyl]pyrrolidin-2-one] were 0.02 to 0.1 µM, 0.02 to 0.1 µM and 0.001 to 0.01 µM.
In the case of `C[C@@H](Oc1ccc2ncc(-c3ccc(N4C[C@@H](N(C)C)CC4=O)cc3)n2n1)c1cccc(F)c1` [Example 135, (4S)-4-(Dimethylamino)-1-[4-[6-[(1R)-1-(3-fluorophenyl)ethoxy]imidazo[1,2-b]pyridazin-3-yl]phenyl]pyrrolidin-2-one], the figures for the IC50 (in experiment [1]; against ROS1 [2]; at ROS1 [3]) were 0.1 to 0.6 µM, 0.02 to 0.1 µM and 0.001 to 0.01 µM, respectively.
